The record followed here is ChEMBL document CHEMBL1134073 (Bioorg Med Chem Lett, 2001).

In one experiment the test system is MT4. Nature of the experiment: Antiviral activity against HIV in presence of 50% human serum in MT-4 cell was determined. It is filed as functional, cell-based.
The target of experiment [1] is Human immunodeficiency virus type 1 protease (Human immunodeficiency virus 1, UniProt Q72874). Nature of the experiment: Inhibitory activity against HIV protease.

As a reminder, the EC50 is the midpoint of the concentration-response curve. By Ki is commonly meant a measure of affinity in units of concentration, obtained from inhibition or displacement. The low end stands for tighter binding, the high end for weaker binding. For the compound `Cc1cccc(C)c1OCC(=O)N[C@@H](Cc1ccccc1)[C@@H](O)C[C@H](Cc1ccccc1)NC(=O)[C@H](C(C)C)N1CCC(=O)NC1=O`, the EC50 in the experiment with MT4 came out at 1410 nM. Further, the Ki in experiment [1] was determined as 0.0007 nM.
In the case of `Cc1cccc(C)c1OCC(=O)N[C@@H](Cc1ccccc1)[C@@H](O)C[C@H](Cc1ccccc1)NC(=O)[C@H](C(C)C)N1CCC(O)NC1=O` (stereo not given in full), the EC50 in the experiment with MT4 is 2310 nM. For the same compound, in experiment [1], the affinity, expressed as Ki, was 0.0012 nM.
In the case of `Cc1cccc(C)c1OCC(=O)N[C@@H](Cc1ccccc1)[C@@H](O)C[C@H](Cc1ccccc1)NC(=O)[C@H](C(C)C)N1CCCNC1=O` [LOPINAVIR], in the experiment on MT4, the EC50 is 104 nM.
